Experimental data from patent US9695155B2, “Herbicidal substituted pyrimidinyloxy benzene compounds” (E. I. DU PONT DE NEMOURS AND COMPANY, priority 2013, dated 2017).

Tests used:
[1] = tested on: barnyardgrass; experiment: Test B flooded paddy test; assay type: in vivo, Echinochloa crus-galli; settings: Echinochloa crus-galli; Flood, 250 g ai/ha; 0 to 100 scale where 0 is no effect and 100 is complete control; read-out: Plant response rating, Barnyardgrass
Procedure, shortened: (§1)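 Plants at 2-leaf stage; pots flooded to 3 cm above soil and compound applied directly into paddy water, depth held throughout. After 13 to 15 days in greenhouse, visual rating versus controls on 0 (no effect) to 100 (complete control) scale.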

[2] = tested on: velvetleaf; experiment: Test A postemergence; assay type: in vivo, Abutilon theophrasti; settings: Abutilon theophrasti, post-emergence, 240 h
Procedure, shortened: (§2)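 Compounds in non-phytotoxic solvent with surfactant applied as soil spray preemergence, or postemergence to plants 2-10 cm at one- to two-leaf stage, in loam/sand. After approximately 10 days in greenhouse, injury rated visually versus untreated controls, 0 (no effect) to 100 (complete control).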

[3] = tested on: wheat, winter; experiment: Test C preemergence; assay type: in vivo, Triticum aestivum; settings: Triticum aestivum, pre-emergence
Procedure, shortened: (§3)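 Seeds were sown in loam–sand blend and sprayed preemergence, while plants at 1- to 4-leaf stage (2–18 cm) in peat-based medium received postemergence sprays; test chemicals were formulated in a non-phytotoxic solvent with surfactant. After 13–15 days in a greenhouse, injury was rated visually against controls, 0 (no effect) to 100 (complete control).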

[4] = tested on: rice; experiment: Test B flooded paddy test; assay type: in vivo, Oryza sativa; settings: Oryza sativa; Flood, 250 g ai/ha; 0 to 100 scale where 0 is no effect and 100 is complete control; read-out: Plant response rating, Rice
Procedure, shortened: as §1

[5] = tested on: ragweed; experiment: Test C postemergence; assay type: in vivo, Ambrosia elatior; settings: Ambrosia artemisiifolia, post-emergence
Procedure, shortened: as §3

[6] = tested on: morningglory; experiment: Test A preemergence; assay type: in vivo, Ipomoea spp.; settings: Ipomoea, pre-emergence, 240 h, read-out: Morningglory plant response rating
Procedure, shortened: as §2

[7] = tested on: blackgrass; experiment: Test C postemergence; assay type: in vivo, Alopecurus myosuroides; settings: Alopecurus myosuroides, post-emergence
Procedure, shortened: as §3

[8] = tested on: pigweed; experiment: Test A postemergence; assay type: in vivo, Amaranthus retroflexus; settings: Amaranthus retroflexus, post-emergence
Procedure, shortened: as §2

[9] = tested on: morningglory; experiment: Test C preemergence; assay type: in vivo, Ipomoea coccinea; settings: Ipomoea, pre-emergence
Text: Seeds of plant species selected from blackgrass (Alopecurus myosuroides), Italian ryegrass (Lolium multiflorum), wheat, winter (winter wheat, Triticum aestivum), galium (catchweed bedstraw, Galium aparine), corn (Zea mays), large (Lg) crabgrass (Digitaria sanguinalis), giant foxtail (Setaria faberii), johnsongrass (Sorghum halepense), lambsquarters (Chenopodium album), morningglory (Ipomoea coccinea), yellow nutsedge (Cyperus esculentus), pigweed (Amaranthus retroflexus), ragweed (common ragweed, Ambrosia elatior), soybean (Glycine max), barnyardgrass (Echinochloa crus-galli), oilseed rape (Brassica napus), waterhemp (common waterhemp, Amaranthus rudis), kochia (Kochia scoparia), wild oat (Avena fatua), surinam grass (Brachiaria decumbens), foxtail, green (green foxtail, Setaria viridis), goosegrass (Eleusine indica), bromegrass, downy (downy bromegrass, Bromus tectorum), nightshade (eastern black nightshade, Solanum ptycanthum), cocklebur (common cocklebur, Xanthium strumarium), cupgrass, woolly (woolly cupgrass, Eriochloa villosa), bermudagrass (Cynodon dactylon), sunflower, (common oilseed sunflower, Helianthus annuus), Russian thistle (Salsola kali), and velvetleaf (Abutilon theophrasti) were planted into a blend of loam soil and sand and treated preemergence with test chemicals formulated in a non-phytotoxic solvent mixture which included a surfactant.
At the same time, plants selected from these crop and weed species and also barley, winter (winter barley, Hordeum vulgare), windgrass (Apera spica-venti), chickweed (common chickweed, Stellaria media), deadnettle (henbit deadnettle, Lamium amplexicaule), and canarygrass (littleseed canarygrass, Phalaris minor) were planted in pots containing Redi-Earth® planting medium (Scotts Company, 14111 Scottslawn Road, Marysville, Ohio 43041) comprising spaghnum peat moss, vermiculite, wetting agent and starter nutrients and treated with postemergence applications of test chemicals formulated in the same manner. Plants ranged in height from 2 to 18 cm (1- to 4-leaf stage) for postemergence treatments. Treated plants and controls were maintained in a greenhouse for 13 to 15 days, after which time all species were compared to controls and visually evaluated. Plant response ratings, summarized in Table C, are based on a scale of 0 to 100 where 0 is no effect and 100 is complete control. A dash (-) response means no test result.

[10] = tested on: barnyardgrass; experiment: Test A postemergence; assay type: in vivo, Echinochloa crus-galli; settings: Echinochloa crus-galli, post-emergence, 240 h
Procedure, shortened: as §2

[11] = tested on: large (Lg) crabgrass; experiment: Test C postemergence; assay type: in vivo, Digitaria sanguinalis; settings: Digitaria sanguinalis, post-emergence
Procedure, shortened: as §3

[12] = tested on: pigweed; experiment: Test A preemergence; assay type: in vivo, Amaranthus retroflexus; settings: Amaranthus retroflexus, pre-emergence, 240 h, read-out: Pigweed plant response rating
Procedure, shortened: as §2

[13] = tested on: soybean; experiment: Test C preemergence; assay type: in vivo, Glycine max; settings: Glycine max, pre-emergence
Procedure, shortened: as §3

[14] = 125 g ai/ha, 0 to 100 scale where 0 is no effect and 100 is complete control
[15] = 500 g ai/ha, 0 to 100 scale, 0 no effect, 100 complete control, approx. 10 days

Clc1cnc(Oc2ccccc2-n2cc(Br)cn2)nc1 [Compound 7, 2-[2-(4-bromo-1H-pyrazol-1-yl)phenoxy]-5-chloropyrimidine]
pest or weed control at 250 g/ha [1]: 30%
pest or weed control at 125 g/ha ([2]; 125 g ai/ha, 0 to 100 scale where 0 is no effect and 100 is complete control, read-out: Plant response rating, Velvetleaf): 100%
pest or weed control at 500 g/ha ([2]; 500 g ai/ha, 0 to 100 scale, 0 no effect, 100 complete control, read-out: Plant response rating Velvetleaf): 100%
plant injury at 62 g/ha ([3]; 62 g ai/ha, preemergence, scale 0 (no effect) to 100 (complete control), read-out: Wheat plant response rating): 5%
plant injury at 125 g/ha ([3]; 125 g ai/ha, preemergence, scale 0 (no effect) to 100 (complete control), read-out: Wheat plant response rating): 10%
plant injury at 250 g/ha ([3]; 250 g ai/ha, preemergence, scale 0 (no effect) to 100 (complete control), read-out: Wheat plant response rating): 40%
plant injury at 31 g/ha ([3]; Preemergence, 31 g ai/ha, scale 0 to 100, 0 no effect, 100 complete control, read-out: Plant response rating, Wheat): 0%
plant injury at 250 g/ha [4]: 20%
pest or weed control at 125 g/ha ([5]; 125 g ai/ha, postemergence, read-out: Plant response rating (0 to 100), Ragweed): 55%
pest or weed control at 250 g/ha ([5]; 250 g ai/ha, postemergence, read-out: Plant response rating (0 to 100), Ragweed): 60%
pest or weed control at 31 g/ha ([5]; Postemergence, 31 g ai/ha, scale 0 to 100 (0 no effect, 100 complete control), 13 to 15 days, read-out: Plant response rating, Ragweed): 50%
pest or weed control at 62 g/ha ([5]; Postemergence, 62 g ai/ha, scale 0 to 100 (0 no effect, 100 complete control), read-out: Plant response rating, Ragweed): 55%
pest or weed control at 125 g/ha [6, 14]: 20%
pest or weed control at 500 g/ha [6, 15]: 70%
pest or weed control at 125 g/ha ([7]; 125 g ai/ha, postemergence, read-out: Plant response rating (0 to 100), Blackgrass): 45%
pest or weed control at 250 g/ha ([7]; 250 g ai/ha, postemergence, read-out: Plant response rating (0 to 100), Blackgrass): 50%
pest or weed control at 31 g/ha ([7]; Postemergence, 31 g ai/ha, scale 0 to 100 (0 no effect, 100 complete control), 13 to 15 days, read-out: Plant response rating, Blackgrass): 5%
pest or weed control at 62 g/ha ([7]; Postemergence, 62 g ai/ha, scale 0 to 100 (0 no effect, 100 complete control), read-out: Plant response rating, Blackgrass): 10%
pest or weed control at 125 g/ha ([8]; 125 g ai/ha, 0 to 100 scale where 0 is no effect and 100 is complete control, read-out: Plant response rating, Pigweed): 100%
pest or weed control at 500 g/ha ([8]; 240 h, 500 g ai/ha, 0 to 100 scale, 0 no effect, 100 complete control, read-out: Plant response rating Pigweed): 100%
pest or weed control at 62 g/ha ([9]; 62 g ai/ha, preemergence, scale 0 (no effect) to 100 (complete control), read-out: Morningglory plant response rating): 0%
pest or weed control at 125 g/ha ([9]; 125 g ai/ha, preemergence, scale 0 (no effect) to 100 (complete control), read-out: Morningglory plant response rating): 10%
pest or weed control at 250 g/ha ([9]; 250 g ai/ha, preemergence, scale 0 (no effect) to 100 (complete control), read-out: Morningglory plant response rating): 40%
pest or weed control at 31 g/ha ([9]; Preemergence, 31 g ai/ha, scale 0 to 100, 0 no effect, 100 complete control, read-out: Plant response rating, Morningglory): 0%
pest or weed control at 125 g/ha ([10]; 125 g ai/ha, 0 to 100 scale where 0 is no effect and 100 is complete control, read-out: Plant response rating, Barnyardgrass): 90%
pest or weed control at 500 g/ha ([10]; 500 g ai/ha, 0 to 100 scale, 0 no effect, 100 complete control, read-out: Plant response rating Barnyardgrass): 100%
pest or weed control at 125 g/ha ([11]; 125 g ai/ha, postemergence, read-out: Plant response rating (0 to 100), Crabgrass, Large): 10%
pest or weed control at 250 g/ha ([11]; 250 g ai/ha, postemergence, read-out: Plant response rating (0 to 100), Crabgrass, Large): 20%
pest or weed control at 31 g/ha ([11]; Postemergence, 31 g ai/ha, scale 0 to 100 (0 no effect, 100 complete control), 13 to 15 days, read-out: Plant response rating, Crabgrass, Large): 5%
pest or weed control at 62 g/ha ([11]; Postemergence, 62 g ai/ha, scale 0 to 100 (0 no effect, 100 complete control), read-out: Plant response rating, Crabgrass, Large): 5%
pest or weed control at 125 g/ha [12, 14]: 90%
pest or weed control at 500 g/ha [12, 15]: 100%
plant injury at 62 g/ha ([13]; 62 g ai/ha, preemergence, scale 0 (no effect) to 100 (complete control), read-out: Soybean plant response rating): 40%
plant injury at 125 g/ha ([13]; 125 g ai/ha, preemergence, scale 0 (no effect) to 100 (complete control), read-out: Soybean plant response rating): 60%
plant injury at 250 g/ha ([13]; 250 g ai/ha, preemergence, scale 0 (no effect) to 100 (complete control), read-out: Soybean plant response rating): 98%
plant injury at 31 g/ha ([13]; Preemergence, 31 g ai/ha, scale 0 to 100, 0 no effect, 100 complete control, read-out: Plant response rating, Soybean): 15%
